This is an account of results in publication doi:10.1101/2023.02.21.529347v1 (biorxiv, 2023).

Assay in all cases: apparent steady-state kinetics of F420H2-dependent alkene reduction
The target of experiment [1] is T1, MSMEG_2850 (Mycolicibacterium smegmatis, UniProt A0QW82).
T1 sequence (A0QW82 1-140): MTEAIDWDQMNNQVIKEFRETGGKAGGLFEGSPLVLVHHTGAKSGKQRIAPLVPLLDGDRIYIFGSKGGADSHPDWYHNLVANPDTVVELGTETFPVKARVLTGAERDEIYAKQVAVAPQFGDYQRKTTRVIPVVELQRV
It is filed as biochemical. Particulars: substrate inhibition constant; co-substrate F420H2.

The target in the next experiment is T2, MSMEG_2027 (Mycolicibacterium smegmatis, UniProt A0QU01).
T2 sequence (A0QU01 1-140): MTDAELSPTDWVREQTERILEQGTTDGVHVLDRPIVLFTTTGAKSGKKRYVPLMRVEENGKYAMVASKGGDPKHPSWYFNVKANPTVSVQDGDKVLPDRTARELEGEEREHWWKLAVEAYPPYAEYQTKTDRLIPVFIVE
In kind it is biochemical. Particulars: substrate inhibition constant; co-substrate F420H2.

Experiment [2] deals with T1, MSMEG_2850. Particulars: co-substrate F420H2; apparent value.

Turning to `CC1=CC(=O)CC(C)(C)C1=O` [7a, ketoisophorone], the Ki is given as 47.9 ± 10.0 mM on MSMEG_2850 [1] and 26.9 ± 11.4 mM on MSMEG_2027.
As for `CC1=CC(=O)[C@H]2C[C@@H]1C2(C)C` [9a, (1S,5S)-(-)-verbenone], at MSMEG_2850 [2], the Michaelis constant (Km) turned out to be 180 ± 30 µM.

What is called Km is the concentration of substrate that gives half-maximal velocity.
